Measured values from PMC7473865, “Repertoire-scale determination of class II MHC peptide binding via yeast display improves antigen prediction” (Nature Communications, 2020).
Where two headings read alike, the source gives them in different places.

Biological target: T1, recombinant HLA-DR401 (HLA-DRA1*01:01, HLA-DRB1*04:01) (Homo sapiens, UniProt P01903+P01911, A100K/A169T/F76Y/I96L/K127E/L162R/M171V/N62H/P40V/Q125Y/R42H/S133A/S149N/S66Y/V115G/V209L/W38E)
T1 construct: poly-histidine (C); made in house; host or cells: High Five (Hi5) insect cells, baculovirus (pAcGP67a)
Experiment: biochemical
Type: binding
Conditions: read-out: Measured IC50

[1] = fluorescence polarization peptide competition, HLA-DR401, sheet Fig7
[2] = HLA-DR401, fluorescence polarization competition, Fig3B

CC[C@H](C)[C@H](NC(=O)[C@H](C)NC(=O)[C@H](CC(=O)O)NC(=O)[C@H](Cc1ccc(O)cc1)NC(=O)[C@H](CC(C)C)NC(=O)[C@@H]1CCCN1C(=O)[C@@H](NC(=O)CNC(=O)[C@@H](N)CCC(=O)O)[C@@H](C)CC)C(=O)N[C@@H](CCCCN)C(=O)N[C@@H](CS)C(=O)N[C@@H](CCSC)C(=O)N[C@@H](CCCNC(=N)N)C(=O)N[C@H](C(=O)N[C@@H](Cc1ccccc1)C(=O)N[C@@H](Cc1ccccc1)C(=O)NCC(=O)N[C@@H](Cc1c[nH]c2ccccc12)C(=O)N[C@@H](CCCCN)C(=O)N[C@@H](CCC(=O)O)C(=O)O)[C@@H](C)O
IC50 [1]: 0.0614 µM

CSCC[C@H](NC(=O)[C@H](Cc1ccc(O)cc1)NC(=O)CNC(=O)[C@@H](N)CCCCN)C(=O)N[C@@H](Cc1ccccc1)C(=O)N[C@@H](CCC(=O)O)C(=O)N[C@@H](CO)C(=O)N[C@@H](CCCCN)C(=O)N[C@@H](CO)C(=O)N[C@@H](CCSC)C(=O)N[C@@H](CCCCN)C(=O)N[C@@H](CC(C)C)C(=O)N[C@@H](CCCNC(=N)N)C(=O)N[C@H](C(=O)N[C@@H](CCC(N)=O)C(=O)O)[C@@H](C)O
IC50: 38.7 µM

CC(C)C[C@H](N)C(=O)N[C@@H](Cc1ccccc1)C(=O)N[C@@H](CCC(=O)O)C(=O)N[C@@H](CCCCN)C(=O)N[C@@H](Cc1ccccc1)C(=O)N[C@@H](Cc1ccccc1)C(=O)N1CCC[C@H]1C(=O)N[C@@H](CO)C(=O)N[C@@H](CO)C(=O)N[C@@H](CO)C(=O)N[C@@H](Cc1ccc(O)cc1)C(=O)N[C@@H](CCCNC(=N)N)C(=O)N[C@@H](CCCNC(=N)N)C(=O)N1CCC[C@H]1C(=O)N[C@H](C(=O)O)C(C)C
IC50 [2]: > 50 µM
IC50: > 50 µM

CC[C@H](C)[C@H](NC(=O)CNC(=O)[C@@H](NC(=O)[C@H](CCSC)NC(=O)CNC(=O)[C@H](CCSC)NC(=O)[C@@H](NC(=O)[C@H](CC(N)=O)NC(=O)[C@H](CC(=O)O)NC(=O)[C@@H](NC(=O)[C@@H]1CCCN1C(=O)[C@H](CCC(=O)O)NC(=O)[C@@H](NC(=O)CNC(=O)[C@H](Cc1c[nH]c2ccccc12)NC(=O)[C@H](CC(N)=O)NC(=O)[C@H](CCC(N)=O)NC(=O)[C@H](Cc1ccccc1)NC(=O)[C@@H](N)CC(C)C)C(C)C)[C@@H](C)CC)C(C)C)[C@@H](C)CC)C(=O)N[C@@H](CC(C)C)C(=O)O
IC50 [1]: 2.52 µM

CC[C@H](C)[C@H](NC(=O)[C@H](CCCCN)NC(=O)[C@H](CO)NC(=O)[C@@H](NC(=O)CNC(=O)[C@H](CC(N)=O)NC(=O)[C@@H](NC(=O)[C@H](CCCNC(=N)N)NC(=O)[C@@H](NC(=O)[C@H](Cc1ccc(O)cc1)NC(=O)[C@H](CC(C)C)NC(=O)[C@H](Cc1ccccc1)NC(=O)[C@@H](N)CCSC)C(C)C)[C@@H](C)O)[C@@H](C)O)C(=O)N[C@@H](CCCCN)C(=O)N[C@@H](CCSC)C(=O)N[C@@H](CCCCN)C(=O)N[C@@H](Cc1c[nH]c2ccccc12)C(=O)NCC(=O)N[C@@H](CCSC)C(=O)N[C@@H](CCC(=O)O)C(=O)O
IC50 [1]: 6.1 µM

CSCC[C@H](NC(=O)[C@H](CO)NC(=O)[C@H](Cc1ccccc1)NC(=O)[C@H](CC(N)=O)NC(=O)[C@H](C)NC(=O)[C@@H](NC(=O)[C@H](Cc1ccccc1)NC(=O)CNC(=O)[C@H](Cc1ccc(O)cc1)NC(=O)[C@H](CCCNC(=N)N)NC(=O)[C@H](Cc1ccc(O)cc1)NC(=O)[C@H](Cc1ccccc1)NC(=O)[C@H](Cc1ccccc1)NC(=O)[C@@H](N)CO)C(C)C)C(=O)N[C@@H](CCC(=O)O)C(=O)O
IC50 [2]: > 50 µM
IC50: > 50 µM

CSCC[C@H](NC(=O)[C@H](CCCNC(=N)N)NC(=O)[C@@H](N)CO)C(=O)N[C@@H](CCC(N)=O)C(=O)N[C@@H](Cc1ccccc1)C(=O)N[C@@H](CO)C(=O)N[C@@H](CO)C(=O)N[C@@H](Cc1ccccc1)C(=O)N[C@H](C(=O)N[C@H](C(=O)N[C@@H](CC(N)=O)C(=O)N[C@H](C(=O)N[C@@H](CCCNC(=N)N)C(=O)NCC(=O)N[C@@H](CO)C(=O)O)C(C)C)C(C)C)[C@@H](C)O
IC50: 3.38 µM
